These results are taken from patent US8318746B2, “Nitrogen-containing five-membered heterocyclic compound” (Takeda Pharmaceutical Company Limited, priority 2007, dated 2012).

The Emax is the greatest response seen or fitted, relative to the assay's reference. Broadly, the melting point is the temperature of the solid-liquid transition.

Data set [1] deals with T1, GST-hLGK1 (GST added to the amino terminal of human liver GK) (Homo sapiens, UniProt P35557).
T1 construct: with a BamHI site added to immediately before the initiation codon; made in house; host or cells: Escherichia coli BL21 (Stratagene), plasmid pGEX6P-2/hLGK1
T1 sequence (P35557 1-464 isoform P35557-3): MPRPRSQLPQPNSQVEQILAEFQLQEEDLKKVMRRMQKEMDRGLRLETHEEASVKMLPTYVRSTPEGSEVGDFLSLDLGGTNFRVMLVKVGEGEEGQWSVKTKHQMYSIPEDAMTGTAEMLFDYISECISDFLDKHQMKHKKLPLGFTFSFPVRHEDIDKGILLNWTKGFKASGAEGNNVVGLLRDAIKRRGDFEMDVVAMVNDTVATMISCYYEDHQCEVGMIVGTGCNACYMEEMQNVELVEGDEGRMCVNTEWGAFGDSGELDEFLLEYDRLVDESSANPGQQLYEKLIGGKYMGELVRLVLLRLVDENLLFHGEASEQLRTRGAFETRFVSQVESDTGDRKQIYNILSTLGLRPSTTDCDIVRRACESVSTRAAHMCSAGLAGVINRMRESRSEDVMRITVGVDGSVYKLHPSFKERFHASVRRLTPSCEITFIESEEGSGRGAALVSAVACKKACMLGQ
Nature of the data set: Measurement of GK activation value. The note with it: test compound final concentration 10 μmol/L; reaction rate divided by that of control group (50% DMSO without test compound); Mant-ATP substrate, D-glucose, 37° C., 60 min. The data set is classed as biochemical. On the procedure:
To each well of a 384-well black plate (Nalge Nunc International K.K.) was added 5 μL of 50% dimethyl sulfoxide solution containing test compound diluted to 100 μmol/L. Then, GST-hLGK1 obtained in Reference Example 2A was diluted with measurement buffer (containing 50 mM HEPES (pH 7.4), 200 mM KCl, 5 mM MgCl2, 2.5 mM DTT and 50 μM 2′-(or-3′)—O—(N-methylanthraniloyl) adenosine 5′-triphosphate (Mant-ATP) (Jena BioScience)) to 6 μg/mL and 35 μL thereof was added to each well.
Each well was stood at 37° C. for 10 min, 25 mM D-glucose solution (10 μL) was added to start the reaction. The final concentration of the test compound was 10 μmol/L.
Each, well after the reaction was stood at 37° C. for 60 min, and the reaction was quenched by adding 25 μL of a quenching solution (containing 200 mM HEPES (pH 7.4), 20 mM MgCl2, 200 mM EDTA, 0.03% Triton-X 100, 0.3% Coating 3 reagent (Caliper Life Sciences, Inc.)).
2′-(or-3′)-O-(N-methylanthraniloyl)adenosine 5′-triphosphate (Mant-ATP, substrate) and Mant-ADP (reaction resultant product) were separated from each well after the reaction by a microchip type capillary electrophoresis apparatus 250 HTS (Caliper Life Sciences, Inc.). The reaction rate [(reaction resultant product peak height)/(reaction resultant product peak height+substrate peak height)×100(%)] was calculated from the ratio of the substrate peak height and reaction resultant product peak height obtained by fluorescence detection (excitation wavelength 355 nm, measurement wavelength 460 nm) and used as the index of GK activity.
As a control group, the reaction rate was calculated in the same manner as above except that “solution in 50% dimethyl sulfoxide (without test compound)” was used instead of “solution of test compound in 50% dimethyl sulfoxide”.
The reaction rate of the well (test compound addition group) added with the test compound was divided by the reaction rate of the control group and the obtained percentage was taken as the GK activation value (Emax) of the test compound.

Compound `O=C(c1[nH]c(C(CC2CCCC2)c2ccc(S(=O)(=O)C3CC3)cc2)nc1F)C1CC1` (stereo not shown) [Example 24, (2-{2-cyclopentyl-1-[4-(cyclopropylsulfonyl)phenyl]ethyl}-4-fluoro-1H-imidazol-5-yl)(cyclopropyl)methanone] returned an Emax at 10 µM in data set [1] of 190%. Still for that read-out and setting: the figure for `O=C1CC[C@H](CC(c2ccc(S(=O)(=O)C3CC3)cc2)c2nc(F)c(C(=O)C3CCC3)[nH]2)C1` (stereo partly drawn) [Example 29, (3R)-3-{2-[5-(cyclobutylcarbonyl)-4-fluoro-1H-imidazol-2-yl]-2-[4-(cyclopropylsulfonyl)phenyl]ethyl}cyclopentanone] is 218%; for `O=S(=O)(c1ccc(C(CC2CCOCC2)c2ccc(-c3ncc(C(O)CO)s3)[nH]2)cc1)C1CC1` (stereo not shown) [Example 34, 1-[2-(5-{1-[4-(cyclopropylsulfonyl)phenyl]-2-(tetrahydro-2H-pyran-4-yl)ethyl}-1H-pyrrol-2-yl)-1,3-thiazol-5-yl]ethane-1,2-diol] it is 178%; for `O=S(=O)(c1ccc(C(CC2CCOCC2)c2ccc(-c3ccc(C(O)CO)cn3)[nH]2)cc1)C1CC1` (stereo not shown) [Example 42, 1-[6-(5-{1-[4-(cyclopropylsulfonyl)phenyl]-2-(tetrahydro-2H-pyran-4-yl)ethyl}-1H-pyrrol-2-yl)pyridin-3-yl]ethane-1,2-diol] it is 156%. In data set [1], `O=S(=O)(c1ccc(C(CC2CCOCC2)c2ccc(-c3ccc(C(CO)CO)cn3)[nH]2)cc1)C1CC1` (stereo not shown) [Example 53, 2-[6-(5-{1-[4-(cyclopropylsulfonyl)phenyl]-2-(tetrahydro-2H-pyran-4-yl)ethyl}-1H-pyrrol-2-yl)pyridin-3-yl]propane-1,3-diol] yielded an Emax at 10 µM of 148%. Same read-out and setting: with `O=S(=O)(c1ccc(C(CC2CCOCC2)c2ccc(-c3ccc(CN4CC[S+]([O-])CC4)cn3)[nH]2)cc1)C1CC1` (stereo not shown) [Example 59, 4-{[6-(5-{1-[4-(cyclopropylsulfonyl)phenyl]-2-(tetrahydro-2H-pyran-4-yl)ethyl}-1H-pyrrol-2-yl)pyridin-3-yl]methyl}thiomorpholine 1-oxide] the figure was 151%; with `CC(=O)N1CCN(Cc2ccc(-c3ccc(C(CC4CCOCC4)c4ccc(S(=O)(=O)C5CC5)cc4)[nH]3)nc2)CC1` (stereo not shown) [Example 62, 1-acetyl-4-{[6-(5-{1-[4-(cyclopropylsulfonyl)phenyl]-2-(tetrahydro-2H-pyran-4-yl)ethyl}-1H-pyrrol-2-yl)pyridin-3-yl]methyl}piperazine], 153%; with `O=S1(=O)CCN(Cc2ccc(-c3ccc(C(CC4CCOCC4)c4ccc(S(=O)(=O)C5CC5)cc4)[nH]3)nc2)CC1` (stereo not shown) [Example 63], 154%.

With `CS(=O)(=O)c1ccc(C(CC2CCOCC2)c2ccc(-c3ccc(C(O)CO)cn3)[nH]2)cc1Cl` (stereo not shown) [Example 91, 1-[6-(5-{1-[3-chloro-4-(methylsulfonyl)phenyl]-2-(tetrahydro-2H-pyran-4-yl)ethyl}-1H-pyrrol-2-yl)pyridin-3-yl]ethane-1,2-diol], the Emax at 10 µM in data set [1] turned out to be 142%.

In data set [1], `CC(C)(O)C(O)c1ccc(-c2ccc(C(CC3CCOCC3)c3ccc(S(=O)(=O)C4CC4)cc3)[nH]2)nc1` (stereo not shown) [Example 127, 1-[6-(5-{1-[4-(cyclopropylsulfonyl)phenyl]-2-(tetrahydro-2H-pyran-4-yl)ethyl}-1H-pyrrol-2-yl)pyridin-3-yl]-2-methylpropane-1,2-diol] registered an Emax at 10 µM of 139%.

With `CC(O)c1cnc(-c2ccc(C(CC3CCOCC3)c3ccc(S(=O)(=O)C4CC4)cc3)[nH]2)s1` (stereo not shown) [Example 151, 1-[2-(5-[1-[4-(cyclopropylsulfonyl)phenyl]-2-(tetrahydro-2H-pyran-4-yl)ethyl]-1H-pyrrol-2-yl)-1,3-thiazol-5-yl]ethanol], the Emax at 10 µM in data set [1] was 167%.

Compound `CCS(=O)(=O)CCNCc1cnc(-c2ccc(C(CC3CCOCC3)c3ccc(S(=O)(=O)C4CC4)cc3)[nH]2)s1.Cl` (stereo not shown) [Example 160, N-{[2-(5-{1-[4-(cyclopropylsulfonyl)phenyl]-2-(tetrahydro-2H-pyran-4-yl)ethyl}-1H-pyrrol-2-yl)-1,3-thiazol-5-yl]methyl}-2-(ethylsulfonyl)ethanamine hydrochloride] showed a melting point of 127 to 129 °C. In data set [1], this compound showed an Emax at 10 µM of 155%.

In turn, `COC(OC)C(C)(O)c1cnc(-c2ccc(C(CC3CCOCC3)c3ccc(S(=O)(=O)C4CC4)cc3)[nH]2)s1` (stereo not shown) [Example 164, 2-[2-(5-{1-[4-(cyclopropylsulfonyl)phenyl]-2-(tetrahydro-2H-pyran-4-yl)ethyl}-1H-pyrrol-2-yl)-1,3-thiazol-5-yl]-1,1-dimethoxypropan-2-ol] showed an Emax at 10 µM in data set [1] of 148%. Same read-out and setting: with `CC(O)c1cnc(-c2ccc(C(CC3CCOCC3)c3ccc(S(C)(=O)=O)c(Cl)c3)[nH]2)s1` (stereo not shown) [Example 172, 1-[2-(5-{1-[3-chloro-4-(methylsulfonyl)phenyl]-2-(tetrahydro-2H-pyran-4-yl)ethyl}-1H-pyrrol-2-yl)-1,3-thiazol-5-yl]ethanol] the figure was 148%. Compound `COCC(O)c1ccc(-c2ccc(C(CC3CCOCC3)c3ccc(S(=O)(=O)C4CC4)cc3)[nH]2)nc1` (stereo not shown) [Example 177, 1-[6-(5-[1-[4-(cyclopropylsulfonyl)phenyl]-2-(tetrahydro-2H-pyran-4-yl)ethyl]-1H-pyrrol-2-yl)pyridin-3-yl]-2-methoxyethanol] yielded an Emax at 10 µM in data set [1] of 171%.

Turning to `CS(=O)(=O)c1ccc(C(C[C@H]2CCC(=O)C2)c2ccc(-c3ccc(CO)cn3)[nH]2)cc1Cl` (stereo partly shown) [Example 197], the Emax at 10 µM in data set [1] turned out to be 142%. Still for that read-out and setting: with `CC(O)c1nnc(-c2ccc(C(CC3CCOCC3)c3ccc(S(=O)(=O)C4CC4)cc3)[nH]2)s1` (stereo not shown) [Example 225, 1-[5-(5-{1-[4-(cyclopropylsulfonyl)phenyl]-2-(tetrahydro-2H-pyran-4-yl)ethyl}-1H-pyrrol-2-yl)-1,3,4-thiadiazol-2-yl]ethanol] the figure was 141%; with `O=S(=O)(c1ccc(C(CC2CCOCC2)c2ccc(-c3nnc(CN4CC(O)C4)s3)[nH]2)cc1)C1CC1` (stereo not shown) [Example 227, 1-{[5-(5-{1-[4-(cyclopropylsulfonyl)phenyl]-2-(tetrahydro-2H-pyran-4-yl)ethyl}-1H-pyrrol-2-yl)-1,3,4-thiadiazol-2-yl]methyl}azetidin-3-ol], 129%. The same measure, in the same setting: with `O=S(=O)(c1ccc(C(CC2CCOCC2)c2ccc(-c3nnc(CN4CCOCC4)s3)[nH]2)cc1)C1CC1` (stereo not shown) [Example 228, 4-{[5-(5-{1-[4-(cyclopropylsulfonyl)phenyl]-2-(tetrahydro-2H-pyran-4-yl)ethyl}-1H-pyrrol-2-yl)-1,3,4-thiadiazol-2-yl]methyl}morpholine] the figure was 145%.

For `O=S(=O)(c1ccc(C(CC2CCOCC2)c2ccc(-c3ccc(Cn4cncn4)cn3)[nH]2)cc1)C1CC1` (stereo not shown) [Example 237, 2-(5-{1-[4-(cyclopropylsulfonyl)phenyl]-2-(tetrahydro-2H-pyran-4-yl)ethyl}-1H-pyrrol-2-yl)-5-(1H-1,2,4-triazol-1-ylmethyl)pyridine], the melting point lay in the range of 152 to 153 °C. This compound also yielded an Emax at 10 µM in data set [1] of 152%.
